Laboratory results as given in patent US10703775B2, “Method of purifying antifungal compounds and exopolysaccharides from a microbial cell culture” (Bayer CropScience LP, priority 2016, dated 2020).

System: fungal pathogen
Assay: Control treatments with processing aids alone on young plants inoculated with fungal pathogen
Assay type: in vivo
Settings: applied alone at final rates similar to those in the pellet fractions; compared with UTC plants
Text: GEROPON® (SDOS) and C12EO25 were also each applied to young plants at final rates similar to those in the pellet fractions. The young plants were later inoculated with fungal pathogen and the each plant was scored for percent control of the pathogen relative to the UTC plants.

## polyoxyethylene (25) dodecyl ether [C12EO25]
  inherent antifungal activity: no inherent antifungal activity
